The OPERA property sets (Mansouri et al. 2018)
≈ marks a conversion by molar mass, not a printed value.

Conditions: for solubility: 25 °C

| Compound | solubility [µM] | logP |
| --- | --- | --- |
| CCOC(=O)C1(S(=O)(=O)c2ccc(C)cc2)CC1 | 976 (≈ 262 µg/mL) |  |
| COC(=O)CS(=O)(=O)c1ccc(Cl)cc1 |  | 1.31 |
| CC(C)OC(=O)C1(S(=O)(=O)c2ccc([N+](=O)[O-])cc2)CCC1 | 174 (≈ 56.9 µg/mL) |  |
| Cc1ccc(S(=O)(=O)C2(C(=O)OC(C)C)CC2)cc1 | 588 (≈ 166 µg/mL) |  |
| Cc1ccc(S(=O)(=O)C2(C(=O)OC(C)C)CCCC2)cc1 |  | 2.88 |
| CCOC(=O)C1(S(=O)(=O)c2ccc(C)cc2)CCC1 | 1100 (≈ 310 µg/mL) |  |
| COC(=O)CS(=O)(=O)c1ccc(Br)cc1 |  | 1.52 |
| CC(C)(C)OC(=O)C1(S(=O)(=O)c2ccc(Cl)cc2)CC1 | 75.8 (≈ 24 µg/mL) |  |
| CC(C)OC(=O)C1(S(=O)(=O)c2ccc(Cl)cc2)CCCC1 | 22.4 (≈ 7.41 µg/mL) |  |
| CC(C)OC(=O)C1(S(=O)(=O)c2ccc([N+](=O)[O-])cc2)CCCCCC1 | 8.5 (≈ 3.14 µg/mL) |  |
| COC(=O)C1(S(=O)(=O)c2ccc([N+](=O)[O-])cc2)CC1 | 417 (≈ 119 µg/mL) |  |
| CC(C)OC(=O)C1(S(=O)(=O)c2ccc([N+](=O)[O-])cc2)CC1 | 54.9 (≈ 17.2 µg/mL) |  |
| COC(=O)C1(S(=O)(=O)c2ccc(C)cc2)CCCCC1 |  | 2.54 |
| COC(=O)CS(=O)(=O)c1ccccc1 |  | 0.93 |
| CC(C)OC(=O)C1(S(=O)(=O)c2ccc(Cl)cc2)CC1 | 288 (≈ 87.3 µg/mL) |  |
| COC(=O)C1(S(=O)(=O)c2ccc(Br)cc2)CCCCC1 | 33.2 (≈ 12 µg/mL) |  |
| CC(C)OC(=O)CS(=O)(=O)c1ccc(Cl)cc1 |  | 2.04 |

Results, then the compound that gave them:

| solubility [µM] | logP | Compound |
| --- | --- | --- |
| 1000 (≈ 289 µg/mL) |  | COC(=O)C1(S(=O)(=O)c2ccc(Cl)cc2)CCC1 |
| 97.6 (≈ 33.9 µg/mL) |  | COC(=O)C1(S(=O)(=O)c2ccc(Br)cc2)CCCC1 |
| 1320 (≈ 335 µg/mL) |  | COC(=O)C1(S(=O)(=O)c2ccc(C)cc2)CC1 |
| 491 (≈ 135 µg/mL) |  | COC(=O)C1(S(=O)(=O)c2ccc(Cl)cc2)CC1 |
| 1410 (≈ 399 µg/mL) |  | COC(=O)C1(S(=O)(=O)c2ccccc2)CCCCC1 |
| 2820 (≈ 756 µg/mL) |  | COC(=O)C1(S(=O)(=O)c2ccccc2)CCCC1 |
| 282 (≈ 93.9 µg/mL) |  | COC(=O)C1(S(=O)(=O)c2ccc(Br)cc2)CCC1 |
| 5490 (≈ 1320 µg/mL) |  | COC(=O)C1(S(=O)(=O)c2ccccc2)CC1 |
| 214 (≈ 68.2 µg/mL) |  | COC(=O)C1(S(=O)(=O)c2ccc(Br)cc2)CC1 |
| 999 (≈ 254 µg/mL) |  | COC(=O)C1(S(=O)(=O)c2ccccc2)CCC1 |
